Read-outs that look alike come from different tables or passages of the source.
What was measured:
feeder-less iPS cells [1] = system: feeder-less iPS cells
Protocol: (§1) FIGS. 8A and 8B indicate the results of culturing iPS cells cultured on laminin E8 fragments following the addition of capsaicin. Vehicle-1 represents the control used in the experiment in which capsaicin was added at 2×10^−4 M, Vehicle-2 represents the control used in the experiment in which capsaicin was added at 1×10^−4 M, and Vehicle-3 represents the control used in the experiment in which capsaicin was added at 1×10^−5 M. The upper panels in FIG. 8A indicates phase-contrast images and the bars represent 100 μm. The middle panels indicate Hoechst staining images and the bars represent 200 μm. The lower panels indicate montage images of 36 fields (6×6) of the Hoechst staining images. FIG. 8B is a graph indicating the numbers of cells in 36 fields under each condition.
(§2) Human iPS cell lines 253G1 and 2017 were purchased from RIKEN (Ibaraki, Japan). Transfer of human iPS cell line 1231A3 was received from Kyoto University.

feeder-less iPS cells [2] = assay: feeder-less iPS cells cultured with TRPV-1 agonists, number of cells in 36 fields (Hoechst staining); conditions: feeder-less iPS cells on laminin E8 fragments
Protocol: as §1, §2

[3] = system: iPS cell-derived cardiomyocytes; assay: iPS cell-derived cardiomyocytes cultured in medium containing capsaicin; format: cell-based, human
Protocol: Prior to seeding the cells, the surface of a temperature-responsive culture dish (Upcell®, CellSeed Inc., Tokyo, Japan) or cell culture dish (Corning, Inc., Corning, N.Y., USA) was coated with fetal bovine serum (FBS) for 2 hours. After the iPS cells were induced to differentiate into cardiomyocytes, the cells were detached using 0.05% trypsin/EDTA and the cell aggregates were broken up into single cells using a strainer (BD Biosciences, Inc., San Jose, Calif., USA), followed by seeding in a culture dish at 2.1×10^5 cells/cm^2 using DMEM medium (Sigma-Aldrich Corp., St. Louis, Mo., USA) containing 10% FBS and culturing in a humidified atmosphere at 37° C. and 5% CO2. In several of the experiments, the cells were treated with puromycin (Sigma-Aldrich Corp., 1.5 μg/mL) for 1 day to purify the iPS cell-derived cardiomyocytes (strain 201B7, αMHC-puro/Rex1-neo).

## CCCCCCCC/C=C\CCCCCCCC(=O)NCCc1ccc(O)c(O)c1 [OLDA, N-oleoyldopamine]
feeder-less iPS cells [1]
  cytotoxic activity against iPS cells: demonstrated cytotoxic activity against iPS cells

## CCCCC/C=C\C/C=C\C/C=C\C/C=C\CCCC(=O)NCc1ccc(O)c(OC)c1 [arvanil]
feeder-less iPS cells [2]; FIGS. 9 and 10
  cytotoxic activity against iPS cells: demonstrated cytotoxic activity against iPS cells

## COc1cc(CNC(=O)CCCC/C=C/C(C)C)ccc1O [capsaicin]
[3]; capsaicin 200 μM and 100 μM (concentrations toxic to iPS cells)
  independent pulsation of the cardiomyocytes: maintained
[3]; capsaicin 200 μM and 100 μM, compared with vehicle (FIGS. 8C and 8D)
  numbers of Nkx2.5-positive cells: no changes
feeder-less iPS cells [2]; capsaicin 2×10^−4 M, 1×10^−4 M, 1×10^−5 M vs vehicle (FIGS. 8A and 8B)
  number of cells: significantly decreased concentration-dependently

Reference: patent US10711247B2, “Method for reducing pluripotent stem cells, method for producing cell population having reduced pluripotent stem cells” (TOKYO WOMEN'S MEDICAL UNIVERSITY, priority 2015, dated 2020)
